{"source": "paper PMC2932999", "about": "(Journal of Medicinal Chemistry, 2010)", "key": {"[1]": {"biological_target": "E197 Perth NA (B/Perth/211/2001 D197E mutant neuraminidase) (Influenza B virus, UniProt Q3S340, D197E)", "format": "biochemical, influenza B virus B/Perth/211/2001", "conditions": "read-out: Km for MUNANA"}, "[2]": {"biological_target": "N197 Yamagata NA (B/Yamagata/186/05 D197N mutant neuraminidase) (Influenza B virus, UniProt Q38G88, D197N)", "format": "biochemical, influenza B virus B/Yamagata/186/05", "conditions": "read-out: Km for MUNANA"}, "[3]": {"system": "mutant NAs (B/Perth E197 and B/Yamagata N197)", "format": "biochemical, influenza B virus"}}, "data": [{"smiles": "CC(=O)N[C@H]1[C@H]([C@H](O)[C@H](O)CO)OC(Oc2ccc3c(C)cc(=O)oc3c2)(C(=O)O)C[C@@H]1O", "note": "(stereo partly shown) [MUNANA, 4-methylumbelliferyl-N-acetylneuraminic acid]", "values": [{"measurement": "Km", "setting": "[1]", "result": "12.1 ± 3.7", "unit": "µM"}, {"measurement": "Km", "setting": "[2]", "result": "18.8 ± 4.5", "unit": "µM"}]}, {"smiles": "CCC(CC)[C@H](NC(C)=O)[C@@H]1[C@H](O)[C@@H](C(=O)O)C[C@H]1NC(=N)N", "note": "[compound 3, peramivir]", "values": [{"measurement": "slow binding of inhibitor", "setting": "[3]", "result": "loss of slow binding"}]}, {"smiles": "O=C(O)C1(F)O[C@H]([C@H](O)[C@H](O)CO)[C@H](O)[C@@H](O)C1F", "note": "(stereo partly drawn) [compound 4, 2,3-difluoro-2-keto-3-deoxy-D-glycero-D-galactononulosonic acid]", "values": [{"measurement": "resistance of mutant NAs compared to D197 wild type NA", "setting": "[3]", "result": "no resistance"}]}]}
